Measured values as given in US10532065B2, “Bisphosphonic acid derivative and application for same” (NAGASAKI UNIVERSITY, priority 2014, dated 2020).
Like-named read-outs stand apart in the source and are kept apart here.

Experiments:
Assay type in all cases: cell-based
U937 cells / γδ T cells = assay: TNF-α production from γδ T cells stimulated by compound-pretreated U937 cells; conditions: U937, Histiocytic lymphoma, 4 hr pretreatment, 16 hr with γδ T cells, read-out: TNF-α50
Procedure: (§1) Since the above-mentioned results of Experimental Example confirm that the activity of bisphosphonic acids becomes high by POM esterification in various tumor cells, the TNF-α production induction ability of more number of tumor cells was quantitatively studied. […] Thereto was added a solution (500 μl) of compound 7 obtained by serially diluting 10 mM stock solution 10-fold from 20 μM, or a solution (500 μl) of compound 14 obtained by serially diluting 10 mM stock solution 10-fold from 200 μM, and the cells were suspended well. These conical tubes were stood at 37° C. for 4 hr, and the cells were washed 3 times with 5 ml of culture medium. To these cells was added 500 μl of medium, and the cells were suspended well. […] The cell culture medium was suspended well, and the plate was centrifuged at 1,700 rpm, 4° C. for 2 min and the culture supernatant (150 μl) was taken and placed in another round-bottomed 96 well plate. The plate was frozen at −80° C. overnight, left standing at room temperature for 1 hr, stirred well and 100 μl thereof was subjected to ELISA of TNF-α. The content of TNF-α was calculated from the analytical curve of TNF-α. These were performed in triplicate, and TNF-α50 of bisphosphonic acid POM ester derivative (compound 7) and bisphosphonic acid (compound 14) was calculated and summarized in Table 8.

TFK-1 cells = assay: TFK-1 tumor cell growth inhibition (CellTiterGlo); conditions: TFK-1, Cholangiocarcinoma, 4 days culture
Procedure: (§2) First, EJ-1, 786-0, MKN1, OST, PC-3, PK-1, LK-2, G-361, TFK-1, MRK-nu-1 were cultured in RPMI1640 medium supplemented with 10% calf serum at 37° C. under 5% CO2 atmosphere while maintaining log phase. The cells were recovered by a conventional EDTA trypsin treatment, and centrifuged at 1,700 rpm, 4° C. for 5 min. The supernatant was removed, and suspended in RPMI1640 medium supplemented with 10% calf serum to 500 cells/50 μl. On the other hand, 10 mM stock solution of compound 7 which is a bisphosphonic acid POM ester derivative was serially diluted 2-fold from 200 pM. In addition, 10 mM stock solution of compound 14 which is bisphosphonic acid was serially diluted 2-fold from 2 mM. Then, the cell suspension (50 μl, 500 cells) and the compound solution (50 μl) were added to a flat-bottomed 96 well plate and cultured at 37° C. under 5% CO2 atmosphere for 4 days. Then, 100 μl of CellTiterGlo solution was added, and the mixture was pipetted 10 strokes, and transferred to a 96 well OptiPlate. After standing at room temperature for 10 min, the luminescence was measured by a luminometer and IC50 value was calculated.

PK-1 cells = assay: PK-1 tumor cell growth inhibition (CellTiterGlo); conditions: PK-1, Pancreatic cancer, 4 days culture
Procedure: as §2

[1] = system: MOLT-3 cells / γδ T cells; assay: TNF-α production from γδ T cells stimulated by compound-pretreated MOLT-3 cells; conditions: MOLT-3, Acute lymphoblastic leukemia, 4 hr pretreatment, 16 hr with γδ T cells, read-out: TNF-α50
Procedure: as §1

C1R cells = assay: C1R tumor cell growth inhibition (CellTiterGlo); conditions: B cell lymphoma, 4 days culture
Procedure: (§3) To quantitatively study an action of compound 7, which is a bisphosphonic acid POM ester derivative, on various hematologic tumor-derived lymphoma and myeloidic leukemia cells, the concentration of a compound that inhibits cell proliferation to half was calculated as IC50, and a direct antitumor effect was studied from the value thereof. […] First, MOLT-4, THP-1, SCC-3, PEER, RAMOS-RA1, C1R, MOLT-3, Raji, U937, K562, Daudi were cultured in RPMI1640 medium supplemented with 10% calf serum at 37° C. under 5% CO2 atmosphere while maintaining log phase. The cells were recovered, and centrifuged at 1,700 rpm, 4° C. for 5 min. The supernatant was removed, and suspended in RPMI1640 medium supplemented with 10% calf serum to 500 cells/50 μl. On the other hand, 10 mM stock solution of compound 7 which is a bisphosphonic acid POM ester derivative was serially diluted 2-fold from 200 μM. In addition, 10 mM stock solution of compound 14 which is bisphosphonic acid was serially diluted 2-fold from 2 mM. Then, the cell suspension (50 μl, 500 cells) and the compound solution (50 μl) were added to a flat-bottomed 96 well plate and cultured at 37° C. under 5% CO2 atmosphere for 4 days. Then, 100 μl of CellTiterGlo solution was added, and the mixture was pipetted 10 strokes, and transferred to a 96 well OptiPlate. […]

[2] = system: RAMOS-RA1 cells / γδ T cells; assay: TNF-α production from γδ T cells stimulated by compound-pretreated RAMOS-RA1 cells; conditions: RAMOS-RA1, Burkitt's lymphoma, 4 hr pretreatment, 16 hr with γδ T cells, read-out: TNF-α50
Procedure: as §1

[3] = system: HMC-1-8 cells / γδ T cells; assay: TNF-α production from γδ T cells stimulated by compound-pretreated HMC-1-8 cells; conditions: HMC-1-8, Mammary carcinoma, 4 hr pretreatment, 16 hr with γδ T cells, read-out: TNF-α50
Procedure: as §1

OST cells / γδ T cells = assay: TNF-α production from γδ T cells stimulated by compound-pretreated OST cells; conditions: Osteosarcoma, 4 hr pretreatment, 16 hr with γδ T cells, read-out: TNF-α50
Procedure: as §1

THP-1 cells / γδ T cells = assay: TNF-α production from γδ T cells stimulated by compound-pretreated THP-1 cells; conditions: THP-1, Acute monocytic leukemia, 4 hr pretreatment, 16 hr with γδ T cells, read-out: TNF-α50
Procedure: as §1

RAMOS-RA1 cells = assay: RAMOS-RA1 tumor cell growth inhibition (CellTiterGlo); conditions: PAMOS-RA1 (so in the source), Burkitt's lymphoma, 4 days culture
Procedure: as §3

MOLT-3 cells = assay: MOLT-3 tumor cell growth inhibition (CellTiterGlo); conditions: MOLT-3, Acute lymphoblastic leukemia, 4 days culture
Procedure: as §3

786-0 cells / γδ T cells = assay: TNF-α production from γδ T cells stimulated by compound-pretreated 786-0 cells; conditions: 786-0, Renal cell carcinoma, 4 hr pretreatment, 16 hr with γδ T cells, read-out: TNF-α50
Procedure: as §1

SCC-3 cells = assay: SCC-3 tumor cell growth inhibition (CellTiterGlo); conditions: SCC-3, Non-Hodgkin's lymphoma, 4 days culture
Procedure: as §3

MOLT-4 cells = assay: MOLT-4 tumor cell growth inhibition (CellTiterGlo); conditions: MOLT-4, Acute lymphoblastic leukemia, 4 days culture
Procedure: as §3

[4] = system: MOLT-4 cells / γδ T cells; assay: TNF-α production from γδ T cells stimulated by compound-pretreated MOLT-4 cells; conditions: MOLT-4, Acute lymphoblastic leukemia, 4 hr pretreatment, 16 hr with γδ T cells, read-out: TNF-α50
Procedure: as §1

LK-2 cells / γδ T cells = assay: TNF-α production from γδ T cells stimulated by compound-pretreated LK-2 cells; conditions: LK-2, Lung cancer, 4 hr pretreatment, 16 hr with γδ T cells, read-out: TNF-α50
Procedure: as §1

PC-3 cells / γδ T cells = assay: TNF-α production from γδ T cells stimulated by compound-pretreated PC-3 cells; conditions: PC-3, Prostate cancer, 4 hr pretreatment, 16 hr with γδ T cells, read-out: TNF-α50
Procedure: as §1

K562 cells / γδ T cells = assay: TNF-α production from γδ T cells stimulated by compound-pretreated K562 cells; conditions: K562, Erythrocytoma, 4 hr pretreatment, 16 hr with γδ T cells, read-out: TNF-α50
Procedure: as §1

786-0 cells = assay: 786-0 tumor cell growth inhibition (CellTiterGlo); conditions: 786-0, Renal cell carcinoma, 4 days culture
Procedure: as §2

C1R cells / γδ T cells = assay: TNF-α production from γδ T cells stimulated by compound-pretreated C1R cells; conditions: B cell lymphoma, 4 hr pretreatment, 16 hr with γδ T cells, read-out: TNF-α50
Procedure: as §1

PC-3 cells = assay: PC-3 tumor cell growth inhibition (CellTiterGlo); conditions: PC-3, Prostate cancer, 4 days culture
Procedure: as §2

PK1 cells / γδ T cells = assay: TNF-α production from γδ T cells stimulated by compound-pretreated PK1 cells; conditions: PK1, Pancreatic cancer, 4 hr pretreatment, 16 hr with γδ T cells, read-out: TNF-α50
Procedure: as §1

G-361 cells = assay: G-361 tumor cell growth inhibition (CellTiterGlo); conditions: G-361, Melanoma, 4 days culture
Procedure: as §2

SCC-3 cells / γδ T cells = assay: TNF-α production from γδ T cells stimulated by compound-pretreated SCC-3 cells; conditions: SCC-3, Non-Hodgkin's lymphoma, 4 hr pretreatment, 16 hr with γδ T cells, read-out: TNF-α50
Procedure: as §1

MKN1 cells = assay: MKN1 tumor cell growth inhibition (CellTiterGlo); conditions: MKN1, Gastric cancer, 4 days culture
Procedure: as §2

CC(C)(C)C(=O)OCOP(=O)(OCOC(=O)C(C)(C)C)C(CNc1nccs1)P(=O)(OCOC(=O)C(C)(C)C)OCOC(=O)C(C)(C)C [Compound 7, tetrakispivaloyloxymethyl 2-(thiazol-2-ylamino) ethylidene-1,1-bisphosphonate]
EC50 (U937 cells / γδ T cells): 0.06 µM
IC50 (TFK-1 cells): 0.1 µM
IC50 (PK-1 cells): 0.34 µM
EC50 [1]: 0.066 µM
IC50 (C1R cells): 0.078 µM
EC50 [2]: 0.14 µM
EC50 [3]: 0.92 µM
EC50 (OST cells / γδ T cells): 0.6 µM
EC50 (THP-1 cells / γδ T cells): 0.3 µM
IC50 (RAMOS-RA1 cells): 0.11 µM
IC50 (MOLT-3 cells): 0.13 µM
EC50 (786-0 cells / γδ T cells): 0.065 µM
IC50 (SCC-3 cells): 0.18 µM
IC50 (MOLT-4 cells): 0.16 µM
EC50 [4]: 0.059 µM
EC50 (LK-2 cells / γδ T cells): 0.097 µM
EC50 (PC-3 cells / γδ T cells): 0.065 µM
EC50 (K562 cells / γδ T cells): 0.08 µM
IC50 (786-0 cells): 0.88 µM
EC50 (C1R cells / γδ T cells): 0.53 µM
IC50 (PC-3 cells): 0.22 µM
EC50 (PK1 cells / γδ T cells): 0.45 µM
IC50 (G-361 cells): 0.12 µM
EC50 (SCC-3 cells / γδ T cells): 0.081 µM
IC50 (MKN1 cells): 1.2 µM

O=P(O)(O)C(CNc1nccs1)P(=O)(O)O [Compound 14, 2-(thiazol-2-ylamino)ethylidene-1,1-bisphosphonic Acid, reference compound]
EC50 (U937 cells / γδ T cells; Homo sapiens, U-937): > 100 µM
IC50 (TFK-1 cells; 96 h): 30 µM
IC50 (PK-1 cells; 96 h): 110 µM
EC50 ([1]; Homo sapiens): > 100 µM
IC50 (C1R cells; 96 h): 79 µM
EC50 ([2]; T-cell): > 100 µM
EC50 ([3]; T-cell): > 100 µM
EC50 (OST cells / γδ T cells; T-cell): > 100 µM
EC50 (THP-1 cells / γδ T cells; Homo sapiens): > 100 µM
IC50 (RAMOS-RA1 cells; 96 h): 75 µM
IC50 (MOLT-3 cells; Homo sapiens, 96 h): 180 µM
EC50 (786-0 cells / γδ T cells; Homo sapiens): > 100 µM
IC50 (SCC-3 cells; Homo sapiens, 96 h): 66 µM
IC50 (MOLT-4 cells; Homo sapiens, 96 h): 120 µM
EC50 ([4]; Homo sapiens): > 100 µM
EC50 (LK-2 cells / γδ T cells; Homo sapiens): > 100 µM
EC50 (PC-3 cells / γδ T cells; Homo sapiens): 77 µM
EC50 (K562 cells / γδ T cells; Homo sapiens): > 100 µM
IC50 (786-0 cells; Homo sapiens, 96 h): 25 µM
EC50 (C1R cells / γδ T cells): > 100 µM
IC50 (PC-3 cells; Homo sapiens, 96 h): 100 µM
EC50 (PK1 cells / γδ T cells; PK-1): > 100 µM
IC50 (G-361 cells; Homo sapiens, 96 h): 20 µM
EC50 (SCC-3 cells / γδ T cells; Homo sapiens): > 100 µM
IC50 (MKN1 cells; Homo sapiens, MKN-1, 96 h): 100 µM
